Test systems include NCI-H23; ACHN; RPMI-8226; MDA-MB-435; SK-MEL-5; KM12; SF-295; COLO 205; RXF 393; SR; SF-539; Hs-578T; K562; EKVX; SK-OV-3; MDA-MB-231; IGROV-1; Malme-3M; HCC 2998; HCT-15.
Holding throughout (experiment): NCI tumour cell line growth inhibition, 48 h

SMILES strings stand for the structures.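 Each compound was tested at five concentrations against cells in 96-well plates for 48 hours. The concentration for 50% growth inhibition is given as GI50.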 Calls of active or inactive are those of the source. No stated cut-off is given here; in the data, active = GI50 up to about 1.1 µM and inactive = higher.

As to `O=[N+]([O-])c1cc2ccc(N(CCO)CCO)nc2nc1N(CCO)CCO`, the GI50 in the assay on NCI-H23, with ACHN, in the assay on RPMI-8226, with MDA-MB-435, in the assay on SK-MEL-5 and in the assay with KM12 was > 100 µM (inactive) each time. Further, the GI50 was > 100 µM (inactive) in the assay with SF-295; > 100 µM (inactive) in the assay on COLO 205; > 100 µM (inactive) in the assay on RXF 393; 46.2 µM (inactive) with SR; > 100 µM (inactive) in the assay on SF-539; > 100 µM (inactive) in the assay on Hs-578T. For the same molecule, the GI50 with K562, in the assay with EKVX, in the assay with SK-OV-3, in the assay on MDA-MB-231, with IGROV-1 and in the assay on Malme-3M was > 100 µM (inactive) in each case. Also, the GI50 with HCC 2998 was > 100 µM (inactive); with HCT-15 it was more than 100 µM.

As for `Clc1ccc(Cl)c(NNc2cc(Cl)ccc2Cl)c1`, the GI50 is 2.82 µM (inactive) in the assay with NCI-H23; 2.84 µM (inactive) in the assay with ACHN; 4.3 µM (inactive) with RPMI-8226; 8.09 µM (inactive) with MDA-MB-435; 2.76 µM (inactive) with SK-MEL-5; > 10 µM (inactive) in the assay on KM12. The GI50 was > 10 µM (inactive) with SF-295; > 10 µM (inactive) in the assay with COLO 205; 6.22 µM (inactive) in the assay on RXF 393; 8.81 µM (inactive) in the assay on SR; > 10 µM (inactive) in the assay on SF-539; > 10 µM (inactive) in the assay on Hs-578T. Further, the GI50 is > 10 µM (inactive) in the assay on K562; 4.45 µM (inactive) with EKVX; 5.79 µM (inactive) with SK-OV-3; > 10 µM (inactive) in the assay with MDA-MB-231; 4.67 µM (inactive) in the assay on IGROV-1; 3.82 µM (inactive) in the assay with Malme-3M. Besides, the figures for the GI50 in the assay with HCC 2998 and in the assay with HCT-15 were 7.03 µM (inactive) and 3.61 µM, respectively.

With `C=CCNC1=C2C[C@@H](C)C[C@@H](OC)[C@H](OC(=O)CN(C)C)[C@H](C)/C=C(\C)[C@@H](OC(N)=O)[C@H](OC)/C=C\C=C(/C)C(=O)NC(=CC1=O)C2=O`, the GI50 in the assay with NCI-H23 is 0.043 µM (active); in the assay with ACHN, 0.802 µM (active); in the assay on RPMI-8226 it was 0.832 µM (active); in the assay on MDA-MB-435, 0.042 µM (active); in the assay with SK-MEL-5, 0.0538 µM (active); in the assay with KM12, 0.024 µM (active). For the same molecule, the GI50 is 0.128 µM (active) in the assay with SF-295; < 0.0126 µM (active) in the assay with COLO 205; 1.78 µM (inactive) with RXF 393; < 0.0113 µM (active) in the assay with SR; 0.071 µM (active) in the assay on SF-539; 13.3 µM (inactive) in the assay with Hs-578T. The GI50 in the assay with K562 was 0.151 µM (active); in the assay on EKVX, 1.28 µM (inactive); in the assay on SK-OV-3, 0.0279 µM (active); in the assay with MDA-MB-231 it was 2.56 µM (inactive); with IGROV-1, 0.0942 µM (active); with Malme-3M it was 0.0409 µM (active). For the same molecule, the figures for the GI50 in the assay on HCC 2998 and in the assay with HCT-15 were 0.0434 µM (active) and 0.535 µM, respectively.

Turning to `CCCCOP(=O)(OCCCC)/C(C#N)=C/c1ccc(C)o1`, the GI50 in the assay on NCI-H23 is 30.4 µM (inactive); in the assay with ACHN, 42.2 µM (inactive); with RPMI-8226, 54.8 µM (inactive); with MDA-MB-435, 32.6 µM (inactive); in the assay on SK-MEL-5, 33.7 µM (inactive); in the assay with KM12 it was 42.4 µM (inactive). For the same molecule, the GI50 was 43.7 µM (inactive) with SF-295; 31.9 µM (inactive) with COLO 205; 26.7 µM (inactive) with RXF 393; 51.6 µM (inactive) in the assay on SR; 61.1 µM (inactive) with SF-539; 57.4 µM (inactive) in the assay with Hs-578T. Moreover, the GI50 in the assay with K562 is 31.2 µM (inactive); in the assay with EKVX, 40.6 µM (inactive); in the assay on SK-OV-3 it was 81.5 µM (inactive); with MDA-MB-231, > 100 µM (inactive); with IGROV-1, > 100 µM (inactive); with Malme-3M it was 29.6 µM (inactive). In addition, the GI50 in the assay with HCC 2998 is > 100 µM (inactive); with HCT-15, 38.7 µM.

For `COC(=O)C1=C(C)NC(CF)=C(C(=O)OC)C1c1cccc2c(=O)c3ccccc3oc12` (stereo not given), the GI50 with NCI-H23 is 36.8 µM (inactive); in the assay with ACHN, 15.1 µM (inactive); in the assay with RPMI-8226 it was 69.3 µM (inactive); in the assay on MDA-MB-435 it was 3.15 µM (inactive); in the assay with SK-MEL-5, 5.06 µM (inactive); in the assay on KM12 it was 5.51 µM (inactive). Further, the GI50 with SF-295 was 3.31 µM (inactive); in the assay with COLO 205 it was 4.39 µM (inactive); in the assay with RXF 393 it was 11.7 µM (inactive); in the assay on SR, 9.4 µM (inactive); with SF-539, 24.3 µM (inactive); in the assay on Hs-578T, 9.62 µM (inactive). Besides, the GI50 in the assay on K562 was 4.06 µM (inactive); in the assay with EKVX, 19.1 µM (inactive); with SK-OV-3, 26.5 µM (inactive); in the assay with MDA-MB-231 it was 4.74 µM (inactive); in the assay on IGROV-1, 2.37 µM (inactive); with Malme-3M, 11.2 µM (inactive). Besides, the GI50 with HCC 2998 was 6.59 µM (inactive); in the assay on HCT-15 it was 4.79 µM.

As for `S=c1[nH]c(=S)c2cc(Sc3ccc4[nH]c(=S)[nH]c(=S)c4c3)ccc2[nH]1`, the GI50 was 28 µM (inactive) in the assay on NCI-H23; 35.2 µM (inactive) in the assay with ACHN; 17.7 µM (inactive) with RPMI-8226; 53 µM (inactive) in the assay on MDA-MB-435; 46.9 µM (inactive) in the assay with SK-MEL-5; 24 µM (inactive) in the assay on KM12. Further, the GI50 with SF-295 is 22 µM (inactive); in the assay with COLO 205 it was 26.9 µM (inactive); with RXF 393, 23.7 µM (inactive); with SR, 17.1 µM (inactive); with SF-539, 30.2 µM (inactive); in the assay with Hs-578T it was 22 µM (inactive). Also, the GI50 with K562 is 49.1 µM (inactive); in the assay on EKVX, 42.2 µM (inactive); in the assay on SK-OV-3, 24.3 µM (inactive); in the assay on MDA-MB-231, 59.6 µM (inactive); with IGROV-1 it was 30 µM (inactive); in the assay on Malme-3M it was 55.3 µM (inactive). The GI50 was 37.3 µM (inactive) with HCC 2998 and 39.2 µM with HCT-15.

Turning to `CC(=O)c1c2c(cc3c1CC1(Cc4ccccc4C1=O)C3)CCC2` (stereo not given), the GI50 is 16 µM (inactive) in the assay on NCI-H23; 21.7 µM (inactive) in the assay with ACHN; 5.66 µM (inactive) in the assay with RPMI-8226; 22.3 µM (inactive) in the assay with MDA-MB-435; 10.3 µM (inactive) with SK-MEL-5; 16.2 µM (inactive) in the assay with KM12. Further, the GI50 with SF-295 is 25.2 µM (inactive); with COLO 205 it was 14.3 µM (inactive); in the assay with RXF 393, 12 µM (inactive); with SR, 15.3 µM (inactive); with SF-539, 31.8 µM (inactive); with Hs-578T it was 28.8 µM (inactive). Besides, the GI50 was 16.3 µM (inactive) in the assay on K562; 7.06 µM (inactive) in the assay on EKVX; 48.9 µM (inactive) with SK-OV-3; 22.3 µM (inactive) in the assay with MDA-MB-231; 16.3 µM (inactive) in the assay on IGROV-1; 16.8 µM (inactive) in the assay with Malme-3M. The results for the GI50 in the assay on HCC 2998 and with HCT-15 were 27.5 µM (inactive) and 32.1 µM, respectively.

Consider `O=C(NCCN1C(=O)CN=C(c2ccc(Cl)cc2)c2cc(Cl)ccc21)OCc1ccccc1`, for which the GI50 in the assay on NCI-H23 is 14.1 µM (inactive); with ACHN, 16.3 µM (inactive); in the assay with RPMI-8226, 19.7 µM (inactive); with MDA-MB-435 it was 15.1 µM (inactive); in the assay on SK-MEL-5 it was 15.2 µM (inactive); with KM12 it was 15.3 µM (inactive). Also, the GI50 in the assay on SF-295 is 13.7 µM (inactive); in the assay with COLO 205 it was 19.8 µM (inactive); with RXF 393, 10.8 µM (inactive); in the assay with SR, 9.48 µM (inactive); with SF-539, 18.9 µM (inactive); in the assay with Hs-578T, 17.4 µM (inactive). Also, the GI50 was 5.06 µM (inactive) in the assay with K562; 20.7 µM (inactive) with EKVX; 52.2 µM (inactive) with SK-OV-3; 14.8 µM (inactive) in the assay on MDA-MB-231; 15.3 µM (inactive) in the assay with IGROV-1; 16.8 µM (inactive) in the assay with Malme-3M. In addition, the GI50 in the assay on HCC 2998 was 14.3 µM (inactive); in the assay on HCT-15, 13.4 µM.

For the molecule `O=[N+]([O-])C(=C(N1CCCCC1)N1CCCCC1)/C(Cl)=C(\Cl)Br`, the GI50 in the assay on NCI-H23 is 18.7 µM (inactive); in the assay with ACHN, 24.9 µM (inactive); with RPMI-8226, 17.1 µM (inactive); in the assay on MDA-MB-435 it was 20.5 µM (inactive); with SK-MEL-5 it was 21 µM (inactive); in the assay with KM12, 23.1 µM (inactive). In addition, the GI50 in the assay on SF-295 is 54.5 µM (inactive); in the assay with COLO 205, 20.3 µM (inactive); in the assay with RXF 393 it was 20.5 µM (inactive); in the assay on SR, 5.93 µM (inactive); in the assay on SF-539 it was 24.4 µM (inactive); with Hs-578T, 0.871 µM (active). Besides, the GI50 was 18.3 µM (inactive) with K562; 16.4 µM (inactive) with EKVX; 48.1 µM (inactive) in the assay on SK-OV-3; 27.2 µM (inactive) in the assay on MDA-MB-231; 25.8 µM (inactive) with IGROV-1; 28.2 µM (inactive) with Malme-3M. The values for the GI50 in the assay with HCC 2998 and in the assay with HCT-15 were 17.5 µM (inactive) and 16.4 µM, respectively.

For the molecule `Nc1nc(OCC2CCCCC2)c2nc[nH]c2n1`, the GI50 is 17.7 µM (inactive) in the assay with NCI-H23; 1.3 µM (inactive) in the assay with ACHN; 11.1 µM (inactive) in the assay with RPMI-8226; 13.7 µM (inactive) with MDA-MB-435; 15.2 µM (inactive) in the assay with SK-MEL-5; 15.7 µM (inactive) with KM12. Moreover, the GI50 was 17.7 µM (inactive) with SF-295; 13 µM (inactive) in the assay with COLO 205; 9.51 µM (inactive) in the assay on RXF 393; 6.85 µM (inactive) in the assay on SR; 11.5 µM (inactive) in the assay on SF-539; 8.39 µM (inactive) with Hs-578T. For the same molecule, the GI50 in the assay with K562 is 29.1 µM (inactive); with EKVX, 19.4 µM (inactive); in the assay with SK-OV-3 it was 14.9 µM (inactive); with MDA-MB-231, 25 µM (inactive); with IGROV-1, 5 µM (inactive); with Malme-3M, 5.73 µM (inactive). Besides, the GI50 with HCC 2998 was 17.5 µM (inactive); with HCT-15, 8.05 µM.

These data come from ChEMBL document CHEMBL1201862, “PubChem BioAssay data set” (2004).
